#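 Values below derive from 48-hour exposures of cells grown in 96-well plates, with endpoints linearly interpolated between the two concentrations bracketing the appropriate inhibition level. TGI denotes the concentration required for complete inhibition of growth.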 *1 amine or outer side, *2 acyl side, *3 side chain or, on linkers, in order; H or OH if unused. Where a SMILES comes first, the peptide text is derived from it. Bridges are numbered along the chain shown (N, C = ends). Roman numbers before positions name the chains, in order. [ ]: non-standard residue; d: D form. ξ: configuration not given here. X54 = N=C(N)NCCC[C@@H](NC(=N)CCCCCCC(=N)N[C@H](CCCNC(=N)N)C(=O)[*:2])C(=O)[*:1]; dIgl = N[C@@H](C(=O)O)C1Cc2ccccc2C1; Hyp = O=C(O)[C@@H]1C[C@@H](O)CN1; ξIgl = NC(C(=O)O)C1Cc2ccccc2C1; ξOic = O=C(O)C1CC2CCCCC2N1; ξR = N=C(N)NCCCC(N)C(=O)O; ξP = O=C(O)C1CCCN1; ξS = NC(CO)C(=O)O
# Columns and labels:
# Assay in all cases: NCI-60 cell line screen, 48 h
# HOP-92 NSCLC = system: HOP-92 NSCLC
# SK-OV-3 ovarian = system: SK-OV-3 ovarian
# MALME-3M melanoma = system: MALME-3M melanoma
# NCI-H522 lung = system: NCI-H522 lung
# M14 melanoma = system: M14 melanoma
# MDA-MB-435 = system: MDA-MB-435
# HOP-62 NSCLC = system: HOP-62 NSCLC
# T-47D breast = system: T-47D breast
# HCT-116 colon = system: HCT-116 colon
# DU-145 prostate = system: DU-145 prostate
# SF-295 CNS = system: SF-295 CNS
# ACHN renal = system: ACHN renal
# MDA-MB-231 breast = system: MDA-MB-231 breast
# SN12C renal = system: SN12C renal
# MDA-N = system: MDA-N
# TK-10 renal = system: TK-10 renal
# OVCAR-3 ovarian = system: OVCAR-3 ovarian
# 786-0 renal = system: 786-0 renal
# OVCAR-5 ovarian = system: OVCAR-5 ovarian
# KM12 colon = system: KM12 colon
# RPMI-8226 leukemia = system: RPMI-8226 leukemia
# NCI-H226 lung = system: NCI-H226 lung
# CAKI-1 renal = system: CAKI-1 renal
# OVCAR-8 ovarian = system: OVCAR-8 ovarian
# HT29 colon = system: HT29 colon
# HCC-2998 colon = system: HCC-2998 colon
# SF-539 CNS = system: SF-539 CNS
# PC-3 prostate = system: PC-3 prostate
# HL-60(TB) leukemia = system: HL-60(TB) leukemia
# NCI-H460 lung = system: NCI-H460 lung
# A549 NSCLC = system: A549 NSCLC
# SNB-75 CNS = system: SNB-75 CNS
# SW-620 colon = system: SW-620 colon
# OVCAR-4 ovarian = system: OVCAR-4 ovarian
# MOLT-4 leukemia = system: MOLT-4 leukemia
# SK-MEL-5 melanoma = system: SK-MEL-5 melanoma
# SK-MEL-2 melanoma = system: SK-MEL-2 melanoma
# SNB-19 CNS = system: SNB-19 CNS
# SK-MEL-28 melanoma = system: SK-MEL-28 melanoma
# CCRF-CEM leukemia = system: CCRF-CEM leukemia
# COLO 205 colon = system: COLO 205 colon
# U251 CNS = system: U251 CNS
# SF-268 CNS = system: SF-268 CNS
# UACC-62 melanoma = system: UACC-62 melanoma
# UACC-257 melanoma = system: UACC-257 melanoma
# MCF7 breast = system: MCF7 breast
# NCI/ADR-RES ovarian = system: NCI/ADR-RES ovarian
# IGROV1 ovarian = system: IGROV1 ovarian
# EKVX NSCLC = system: EKVX NSCLC
# NCI-H23 lung = system: NCI-H23 lung
# UO-31 renal = system: UO-31 renal
# SR leukemia = system: SR leukemia
# K-562 leukemia = system: K-562 leukemia
# RXF 393 renal = system: RXF 393 renal
# LOX IMVI melanoma = system: LOX IMVI melanoma
# HS 578T breast = system: HS 578T breast
# HCT-15 colon = system: HCT-15 colon
# A498 renal = system: A498 renal
structure (smiles),measurement,setting,value
CC(C)(C)COC(=O)C(C)(C)NC(=O)C(CC(=O)OCc1ccccc1)NC(=O)OCc1ccccc1 (centres undefined),TGI,HOP-92 NSCLC,> 100 µM
same,TGI,SK-OV-3 ovarian,> 100 µM
same,TGI,MALME-3M melanoma,81.3 µM
same,TGI,NCI-H522 lung,> 100 µM
same,TGI,M14 melanoma,> 100 µM
same,TGI,MDA-MB-435,89.9 µM
same,TGI,HOP-62 NSCLC,> 100 µM
same,TGI,T-47D breast,60.2 µM
same,TGI,HCT-116 colon,> 100 µM
same,TGI,DU-145 prostate,> 100 µM
same,TGI,SF-295 CNS,> 100 µM
same,TGI,ACHN renal,> 100 µM
same,TGI,MDA-MB-231 breast,> 100 µM
same,TGI,SN12C renal,75.7 µM
same,TGI,MDA-N,> 100 µM
same,TGI,TK-10 renal,78.7 µM
same,TGI,OVCAR-3 ovarian,> 100 µM
same,TGI,786-0 renal,> 100 µM
same,TGI,OVCAR-5 ovarian,93.5 µM
same,TGI,KM12 colon,> 100 µM
same,TGI,RPMI-8226 leukemia,> 100 µM
same,TGI,NCI-H226 lung,85.2 µM
same,TGI,CAKI-1 renal,> 100 µM
same,TGI,OVCAR-8 ovarian,> 100 µM
same,TGI,HT29 colon,87.9 µM
same,TGI,HCC-2998 colon,> 100 µM
same,TGI,SF-539 CNS,> 100 µM
same,TGI,PC-3 prostate,> 100 µM
same,TGI,HL-60(TB) leukemia,> 100 µM
same,TGI,NCI-H460 lung,> 100 µM
same,TGI,A549 NSCLC,> 100 µM
same,TGI,SNB-75 CNS,> 100 µM
same,TGI,SW-620 colon,> 100 µM
same,TGI,OVCAR-4 ovarian,> 100 µM
same,TGI,MOLT-4 leukemia,> 100 µM
same,TGI,SK-MEL-5 melanoma,29.1 µM
same,TGI,SK-MEL-2 melanoma,> 100 µM
same,TGI,SNB-19 CNS,75.7 µM
same,TGI,SK-MEL-28 melanoma,> 100 µM
same,TGI,CCRF-CEM leukemia,> 100 µM
same,TGI,COLO 205 colon,44 µM
same,TGI,U251 CNS,> 100 µM
same,TGI,SF-268 CNS,> 100 µM
same,TGI,UACC-62 melanoma,80 µM
same,TGI,UACC-257 melanoma,82.1 µM
same,TGI,MCF7 breast,> 100 µM
same,TGI,NCI/ADR-RES ovarian,> 100 µM
same,TGI,IGROV1 ovarian,> 100 µM
same,TGI,EKVX NSCLC,> 100 µM
same,TGI,NCI-H23 lung,> 100 µM
same,TGI,UO-31 renal,70.7 µM
same,TGI,SR leukemia,> 100 µM
same,TGI,K-562 leukemia,> 100 µM
same,TGI,RXF 393 renal,> 100 µM
same,TGI,LOX IMVI melanoma,> 100 µM
same,TGI,HS 578T breast,> 100 µM
same,TGI,HCT-15 colon,69.1 µM
same,TGI,A498 renal,79.5 µM
N=C(N)NCCCC(NC(=O)C1CC2CCCCC2N1C(=O)[C@H](NC(=O)C(CO)NC(=O)C(NC(=O)CNC(=O)[C@@H]1C[C@@H](O)CN1C(=O)C1CCCN1C(=O)C(CCCNC(=N)N)NC(=O)[C@@H](CCCNC(=N)N)NC(=N)CCCCCCC(=N)N[C@H](CCCNC(=N)N)C(=O)NC(CCCNC(=N)N)C(=O)N1CCCC1C(=O)N1C[C@H](O)C[C@H]1C(=O)NCC(=O)NC(C(=O)NC(CO)C(=O)N[C@@H](C(=O)N1C(C(=O)NC(CCCNC(=N)N)C(=O)O)CC2CCCCC21)C1Cc2ccccc2C1)C1Cc2ccccc2C1)C1Cc2ccccc2C1)C1Cc2ccccc2C1)C(=O)O (some centres undefined) (I: [ξR][ξP][Hyp]G[ξIgl][ξS][dIgl][ξOic][ξR]-OH / II: [ξR][ξP][Hyp]G[ξIgl][ξS][dIgl][ξOic][ξR]-OH; linker I:N-II:N via X54),TGI,HOP-92 NSCLC,4.71 µM
same,TGI,SK-OV-3 ovarian,3.74 µM
same,TGI,MALME-3M melanoma,5.1 µM
same,TGI,NCI-H522 lung,> 10 µM
same,TGI,M14 melanoma,7.23 µM
same,TGI,MDA-MB-435,4.18 µM
same,TGI,HOP-62 NSCLC,5.64 µM
same,TGI,T-47D breast,4.42 µM
same,TGI,HCT-116 colon,> 10 µM
same,TGI,DU-145 prostate,3.06 µM
same,TGI,SF-295 CNS,4.3 µM
same,TGI,ACHN renal,3.91 µM
same,TGI,MDA-MB-231 breast,3.49 µM
same,TGI,SN12C renal,4.16 µM
same,TGI,MDA-N,5.23 µM
same,TGI,TK-10 renal,8.95 µM
same,TGI,OVCAR-3 ovarian,3.4 µM
same,TGI,786-0 renal,5.07 µM
same,TGI,OVCAR-5 ovarian,> 10 µM
same,TGI,KM12 colon,4.13 µM
same,TGI,RPMI-8226 leukemia,4.48 µM
same,TGI,CAKI-1 renal,3.71 µM
same,TGI,HT29 colon,2.12 µM
same,TGI,SF-539 CNS,5.32 µM
same,TGI,PC-3 prostate,3.59 µM
same,TGI,HL-60(TB) leukemia,0.409 µM
same,TGI,NCI-H460 lung,3.87 µM
same,TGI,A549 NSCLC,> 10 µM
same,TGI,SW-620 colon,6.35 µM
same,TGI,OVCAR-4 ovarian,4.56 µM
same,TGI,MOLT-4 leukemia,2.89 µM
same,TGI,SK-MEL-5 melanoma,3.62 µM
same,TGI,SK-MEL-2 melanoma,6.77 µM
same,TGI,SNB-19 CNS,5.49 µM
same,TGI,SK-MEL-28 melanoma,3.64 µM
same,TGI,CCRF-CEM leukemia,8.81 µM
same,TGI,COLO 205 colon,3.28 µM
same,TGI,U251 CNS,5.35 µM
same,TGI,SF-268 CNS,3.82 µM
same,TGI,UACC-62 melanoma,3.72 µM
same,TGI,UACC-257 melanoma,> 10 µM
same,TGI,MCF7 breast,4.04 µM
same,TGI,NCI/ADR-RES ovarian,> 10 µM
same,TGI,IGROV1 ovarian,> 10 µM
same,TGI,EKVX NSCLC,3.67 µM
same,TGI,NCI-H23 lung,4.17 µM
same,TGI,UO-31 renal,> 10 µM
same,TGI,SR leukemia,2.95 µM
same,TGI,K-562 leukemia,4.03 µM
same,TGI,RXF 393 renal,3.02 µM
same,TGI,LOX IMVI melanoma,4.94 µM
same,TGI,HS 578T breast,6.82 µM
same,TGI,HCT-15 colon,4.64 µM
CC(=O)O[C@H]1C(=O)[C@@]2(C)[C@H]([C@H](OC(=O)c3ccccc3)[C@]3(O)C[C@H](OC(=O)[C@H](O)[C@@H](NC(=O)c4ccccc4)c4ccc5ccccc5c4)C(C)=C1C3(C)C)[C@]1(OC(C)=O)CO[C@@H]1C[C@@H]2O,TGI,HOP-92 NSCLC,> 14 µM
same,TGI,SK-OV-3 ovarian,0.836 µM
same,TGI,MALME-3M melanoma,14.7 µM
same,TGI,M14 melanoma,1.85 µM
same,TGI,MDA-MB-435,0.0238 µM
same,TGI,HOP-62 NSCLC,0.362 µM
same,TGI,T-47D breast,> 50 µM
same,TGI,HCT-116 colon,0.237 µM
same,TGI,SF-295 CNS,1.89 µM
same,TGI,ACHN renal,> 50 µM
same,TGI,MDA-MB-231 breast,1.8 µM
same,TGI,SN12C renal,17.2 µM
same,TGI,MDA-N,0.0202 µM
same,TGI,TK-10 renal,18.6 µM
same,TGI,786-0 renal,8.59 µM
same,TGI,OVCAR-5 ovarian,2 µM
same,TGI,RPMI-8226 leukemia,1.87 µM
same,TGI,CAKI-1 renal,> 41 µM
same,TGI,OVCAR-8 ovarian,25.8 µM
same,TGI,HT29 colon,1.96 µM
same,TGI,HCC-2998 colon,0.228 µM
same,TGI,SF-539 CNS,0.152 µM
same,TGI,PC-3 prostate,> 50 µM
same,TGI,HL-60(TB) leukemia,0.0327 µM
same,TGI,NCI-H460 lung,5.19 µM
same,TGI,A549 NSCLC,> 42.1 µM
same,TGI,SNB-75 CNS,2.15 µM
same,TGI,SW-620 colon,> 50 µM
same,TGI,OVCAR-4 ovarian,> 41 µM
same,TGI,MOLT-4 leukemia,1.09 µM
same,TGI,SK-MEL-5 melanoma,12.9 µM
same,TGI,SK-MEL-2 melanoma,0.173 µM
same,TGI,SNB-19 CNS,> 31.8 µM
same,TGI,SK-MEL-28 melanoma,> 23.1 µM
same,TGI,CCRF-CEM leukemia,> 11.2 µM
same,TGI,COLO 205 colon,0.319 µM
same,TGI,U251 CNS,1.46 µM
same,TGI,SF-268 CNS,> 50 µM
same,TGI,UACC-62 melanoma,12.7 µM
same,TGI,UACC-257 melanoma,8.22 µM
same,TGI,MCF7 breast,0.879 µM
same,TGI,NCI/ADR-RES ovarian,> 50 µM
same,TGI,IGROV1 ovarian,> 42.3 µM
same,TGI,EKVX NSCLC,> 50 µM
same,TGI,NCI-H23 lung,> 45.4 µM
same,TGI,UO-31 renal,> 50 µM
same,TGI,SR leukemia,1.85 µM
same,TGI,K-562 leukemia,2.05 µM
same,TGI,RXF 393 renal,1.77 µM
same,TGI,LOX IMVI melanoma,6.59 µM
same,TGI,HS 578T breast,0.148 µM
same,TGI,HCT-15 colon,8.4 µM
same,TGI,A498 renal,6.96 µM

# From PubChem BioAssay (NCI)
